In ChEMBL document CHEMBL5705898 (Proc Natl Acad Sci U S A, 2014):
pIC50: −log10 of the molar value.

Biological target: T1, Histone-lysine N-methyltransferase SETD7 (Homo sapiens, UniProt Q8WTS6)
T1 sequence (Q8WTS6 whole entry): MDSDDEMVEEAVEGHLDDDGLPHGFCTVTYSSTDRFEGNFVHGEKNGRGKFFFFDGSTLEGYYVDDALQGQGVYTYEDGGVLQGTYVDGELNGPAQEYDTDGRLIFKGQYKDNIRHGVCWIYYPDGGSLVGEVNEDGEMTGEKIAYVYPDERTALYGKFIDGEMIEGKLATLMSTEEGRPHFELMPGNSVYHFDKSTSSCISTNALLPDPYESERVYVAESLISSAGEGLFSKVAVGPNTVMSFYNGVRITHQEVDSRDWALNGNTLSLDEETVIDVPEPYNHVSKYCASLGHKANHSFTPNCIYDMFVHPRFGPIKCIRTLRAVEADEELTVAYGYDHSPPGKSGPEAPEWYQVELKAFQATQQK
Assay: Inhibition of wildtype full length human SETD7 (1 to 366 residues) expressed in Escherichia coli BL21 (DE3) V2R-pRARE using biotinylated H3 (1-25) peptide as substrate incubated for 1 hrs in presence of 3H-SAM by radioactivity based assay

SMILES: O=C([C@H](Cc1cccc(C(F)(F)F)c1)NS(=O)(=O)c1cc(F)c2c(c1)CCNC2)N1CCCC1
- pIC50: 6.00
